From patent EP3046573B1, “AMYLIN ANALOGUES” (Zealand Pharma A/S, priority 2013, dated 2015)
Numbered stars: 1 amine (or outer) side, 2 acyl side, 3 side chain; on linkers, the order of the positions; unused ones are H or OH. Bridge positions count the residues as written; N and C are the ends. Square brackets hold non-standard residues; d marks the D form. Peptide text beside a SMILES is read from it. * marks the point of attachment. C20 diacid = O=C(O)CCCCCCCCCCCCCCCCCCC(=O)*; γGlu = O=C(O)[C@H](CCC(=O)[*:2])N[*:1]; NMeI = CC[C@H](C)[C@H](NC)C(=O)O; Sar = CNCC(=O)O

Key:
[1] = target: T1, human calcitonin receptor (hCTR2) (Homo sapiens, UniProt P30988); experiment: hCTR2 assay: induction of cAMP (AlphaScreen cAMP Assay kit) in COS7 cells expressing hCTR2; format: cell-based
T1 construct: expressed in transfected cells
T1 sequence (P30988 25-474): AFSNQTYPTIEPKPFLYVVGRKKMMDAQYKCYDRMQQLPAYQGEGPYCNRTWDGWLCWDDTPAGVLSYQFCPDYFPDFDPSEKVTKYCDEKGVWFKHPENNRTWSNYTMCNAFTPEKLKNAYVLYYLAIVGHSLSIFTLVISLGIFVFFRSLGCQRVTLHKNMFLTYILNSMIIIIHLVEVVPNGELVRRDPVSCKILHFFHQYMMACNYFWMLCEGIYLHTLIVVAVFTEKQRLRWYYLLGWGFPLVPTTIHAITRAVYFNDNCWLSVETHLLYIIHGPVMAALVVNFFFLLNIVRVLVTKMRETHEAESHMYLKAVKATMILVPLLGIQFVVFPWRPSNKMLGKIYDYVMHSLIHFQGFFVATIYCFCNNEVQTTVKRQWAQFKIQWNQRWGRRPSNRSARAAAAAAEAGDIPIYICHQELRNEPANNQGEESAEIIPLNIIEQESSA
Outline: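 Functional agonism is measured as cAMP accumulation in a COS7 line stably transfected with hCTR2, lacking endogenous RAMPs. Peptides act for 15 min at 37° C with IBMX present, and curves are fitted with a 4-parameter logistic model.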

[2] = target: T2, human amylin receptor 3 (hAMYR3) consisting of hCTR2 co-expressed with human Receptor Activity Modifying Protein 3 (hRAMP3) (Homo sapiens, UniProt O60896+P30988); experiment: hAMYR3 assay: induction of cAMP (AlphaScreen cAMP Assay kit) in COS7 cells expressing hAMYR3; format: cell-based; conditions: cAMP induction in COS7 cells expressing hAMYR3; average of a minimum of 3 determinations; read-out: hAMY R3 EC50
T2 construct: expressed in transfected cells
T2 sequence (P30988 25-474): T1 sequence (P30988 25-474)
T2 sequence (O60896 24-148 partner): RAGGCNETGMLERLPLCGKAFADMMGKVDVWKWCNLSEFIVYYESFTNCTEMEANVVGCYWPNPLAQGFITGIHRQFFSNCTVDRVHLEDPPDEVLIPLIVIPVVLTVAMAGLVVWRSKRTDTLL
Outline: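 Stable COS7 clone co-expressing hCTR2 and hRAMP3, stimulated 15 min at 37° C with increasing peptide in Tyrode buffer pH 7.4 with 100 µM IBMX and 0.1% casein. cAMP measured by AlphaScreen after lysis; EC50 and % efficacy versus pramlintide from 4PL fit.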

[3] = Solubility assessment (turbidity absorbance at 325 nm); format: physicochemical; conditions: stock 2 mg/ml diluted 1:1, ambient temperature (typically 25°C), n=1; for Solubility, Acetate buffer pH 4: 100 mM acetate buffer pH 4.0; for Solubility, Acetate buffer pH 5: 100 mM acetate buffer pH 5.0; for Solubility, Histidine buffer pH 6: 100 mM histidine buffer pH 6.0; for Solubility, Histidine buffer pH 7: 100 mM histidine buffer pH 7.0; for Solubility, Phosphate buffer pH 6: 100 mM phosphate buffer pH 6.0; for Solubility, Phosphate buffer pH 7: 100 mM phosphate buffer pH 7.0; for Solubility, Phosphate buffer pH 7.5: 100 mM phosphate buffer pH7.5
Outline: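 Peptide stock (2 mg/ml, water pH 2.5) diluted 1:1 into 100 mM acetate (pH 4.0, 5.0), histidine (pH 6.0, 7.0) or phosphate (pH 6.0–7.5) buffer; absorbance at 325 nm read at about 25°C, n=1. A325 ≤ 0.02 taken as solubility ≥ 1 mg/ml.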

[4] = Assessment of physical stability: fibril formation detected with Thioflavin T (ThT), lag-time; format: physicochemical; conditions: 1 mg/ml peptide, 40 µM ThT, FND = Fibrillation not detected; for Fibrillation lag time (hours) pH 4.0 (Ac): 50 mM acetate buffer pH 4.0, 96 hours at 40°C; for Fibrillation lag time (hours) pH 7.0 (Ph): 50 mM phosphate buffer pH 7.0, 96 hours at 40°C
Description: Solutions containing (i) 1 mg/ml of test peptide, 40 µM ThT and 50 mM phosphate (Ph) buffer (pH 7.0), (ii) 1 mg/ml of test peptide, 40 µM ThT and 50 mM histidine (His) buffer (pH 7.0), and (iii) 1 mg/ml of test peptide, 40 µM ThT and 50 mM acetate (Ac) buffer (pH 4.0), were loaded in a 96-well black fluorescence plate (clear bottom) in triplicate. Data were collected at fixed intervals of 10 min, each preceded by 300 s of automixing (agitation), over a period of 96 hours at 40° C. Physical stability, expressed as lag-time of fibril formation (in hours), was defined as the intersection between two linear regressions representing the initial stable phase and the growth phase.

Compound | EC50 [1] | EC50 [2] | Solubility, Acetate buffer pH 4 [3] | Solubility, Acetate buffer pH 5 [3] | Solubility, Histidine buffer pH 6 [3] | Solubility, Histidine buffer pH 7 [3] | Solubility, Phosphate buffer pH 6 [3] | Solubility, Phosphate buffer pH 7 [3] | Solubility, Phosphate buffer pH 7.5 [3] | Fibrillation lag time (hours) pH 4.0 (Ac) [4] | Fibrillation lag time (hours) pH 7.0 (Ph) [4] | Fibrillation lag time (hours) pH 7.0 (His) ([4]; 50 mM histidine buffer pH 7.0, 96 hours at 40°C)
CC[C@H](C)[C@@H](C(=O)N[C@@H](CC(C)C)C(=O)N1CCC[C@H]1C(=O)N1CCC[C@H]1C(=O)N[C@H](C(=O)N[C@@H](CC(N)=O)C(=O)N[C@H](C(=O)NCC(=O)N[C@@H](CO)C(=O)N[C@@H](CC(N)=O)C(=O)N[C@H](C(=O)N1CCC[C@H]1C(N)=O)[C@@H](C)O)C(C)C)[C@@H](C)O)N(C)C(=O)[C@@H]1CCCN1C(=O)CN(C)C(=O)[C@H](Cc1ccccc1)NC(=O)[C@H](CC(N)=O)NC(=O)[C@H](CC(N)=O)NC(=O)[C@H](CO)NC(=O)[C@H](CO)NC(=O)[C@H](Cc1c[nH]cn1)NC(=O)[C@H](Cc1c[nH]cn1)NC(=O)[C@H](CC(C)C)NC(=O)[C@H](Cc1ccccc1)NC(=O)[C@H](CCC(=O)O)NC(=O)[C@H](C)NC(=O)[C@H](CC(C)C)NC(=O)[C@H](CCCNC(=N)N)NC(=O)[C@H](CCC(N)=O)NC(=O)[C@@H](NC(=O)[C@H](C)NC(=O)[C@@H]1CSSC[C@H](NC(=O)[C@H](CCCNC(=N)N)NC(=O)CC[C@H](NC(=O)CCCCCCCCCCCCCCCCCCC(=O)O)C(=O)O)C(=O)N[C@@H](CC(N)=O)C(=O)N[C@@H]([C@@H](C)O)C(=O)N[C@@H](C)C(=O)N[C@@H]([C@@H](C)O)C(=O)N1)[C@@H](C)O [Compound 175, [19CD]-isoGlu-RC()NTATC()ATQRLAEFLHHSSNNF-Gly(Me)-P-Ile(Me)-LPPTNVGSNTP-NH2] ({C20 diacid-γGlu}-RCNTATCATQRLAEFLHHSSNNF[Sar]P[NMeI]LPPTNVGSNTP-NH2; disulfide 2-7) | 0.2 nM | 0.2 nM | SS (SS indicates solubility ≥ 1mg/ml) | SS (SS indicates solubility ≥ 1mg/ml) | SS (SS indicates solubility ≥ 1mg/ml) | SS (SS indicates solubility ≥ 1mg/ml) | SS (SS indicates solubility ≥ 1mg/ml) | SS (SS indicates solubility ≥ 1mg/ml) | II (II indicates solubility ≤ 1 mg/ml) | FND | FND | –
CC[C@H](C)[C@@H](C(=O)N[C@@H](CC(C)C)C(=O)N[C@@H](CO)C(=O)N[C@@H](CO)C(=O)N[C@H](C(=O)N[C@@H](CC(N)=O)C(=O)N[C@H](C(=O)NCC(=O)N[C@@H](CO)C(=O)N[C@@H](Cc1c[nH]cn1)C(=O)N[C@H](C(=O)N[C@@H](Cc1ccc(O)cc1)C(N)=O)[C@@H](C)O)C(C)C)[C@@H](C)O)N(C)C(=O)[C@H](C)NC(=O)CN(C)C(=O)[C@H](Cc1ccccc1)NC(=O)[C@H](CC(N)=O)NC(=O)[C@H](CC(N)=O)NC(=O)[C@H](CO)NC(=O)[C@H](CO)NC(=O)[C@H](Cc1c[nH]cn1)NC(=O)[C@H](Cc1c[nH]cn1)NC(=O)[C@H](CC(C)C)NC(=O)[C@H](Cc1ccccc1)NC(=O)[C@H](CCC(=O)O)NC(=O)[C@H](C)NC(=O)[C@H](CC(C)C)NC(=O)[C@H](CCCNC(=N)N)NC(=O)[C@H](CCC(N)=O)NC(=O)[C@@H](NC(=O)[C@H](C)NC(=O)[C@@H]1CSSC[C@H](NC(=O)[C@H](CCCCN)NC(=O)CC[C@H](NC(=O)CCCCCCCCCCCCCCCCCCC(=O)O)C(=O)O)C(=O)N[C@@H](CC(N)=O)C(=O)N[C@@H]([C@@H](C)O)C(=O)N[C@@H](C)C(=O)N[C@@H]([C@@H](C)O)C(=O)N1)[C@@H](C)O [Compound 3, [19CD]-isoGlu-KC()NTATC()ATQRLAEFLHHSSNNF-Gly(Me)-A-Ile(Me)-LSSTNVGSHTY-NH2] ({C20 diacid-γGlu}-KCNTATCATQRLAEFLHHSSNNF[Sar]A[NMeI]LSSTNVGSHTY-NH2; disulfide 2-7) | 1.3 nM | – | SS (SS indicates solubility ≥ 1mg/ml) | SS (SS indicates solubility ≥ 1mg/ml) | SS (SS indicates solubility ≥ 1mg/ml) | II** (II indicates solubility ≤ 1 mg/ml) | SS (SS indicates solubility ≥ 1mg/ml) | II (II indicates solubility ≤ 1 mg/ml) | II (II indicates solubility ≤ 1 mg/ml) | FND | FND | FND
CC[C@H](C)[C@@H](C(=O)N[C@@H](CC(C)C)C(=O)N[C@@H](CO)C(=O)N[C@@H](CO)C(=O)N[C@H](C(=O)N[C@@H](CC(N)=O)C(=O)N[C@H](C(=O)NCC(=O)N[C@@H](CO)C(=O)N[C@@H](CC(N)=O)C(=O)N[C@H](C(=O)N1CCC[C@H]1C(N)=O)[C@@H](C)O)C(C)C)[C@@H](C)O)N(C)C(=O)CN(C)C(=O)[C@H](Cc1ccccc1)NC(=O)[C@H](CC(N)=O)NC(=O)[C@H](CC(N)=O)NC(=O)[C@H](CO)NC(=O)[C@H](CO)NC(=O)[C@H](Cc1c[nH]cn1)NC(=O)[C@H](Cc1c[nH]cn1)NC(=O)[C@H](CC(C)C)NC(=O)[C@H](Cc1ccccc1)NC(=O)[C@H](CCC(=O)O)NC(=O)[C@H](C)NC(=O)[C@H](CC(C)C)NC(=O)[C@H](CCCNC(=N)N)NC(=O)[C@H](CCC(N)=O)NC(=O)[C@@H](NC(=O)[C@H](C)NC(=O)[C@@H]1CSSC[C@H](NC(=O)[C@H](CCCNC(=N)N)NC(=O)CC[C@H](NC(=O)CCCCCCCCCCCCCCCCCCC(=O)O)C(=O)O)C(=O)N[C@@H](CC(N)=O)C(=O)N[C@@H]([C@@H](C)O)C(=O)N[C@@H](C)C(=O)N[C@@H]([C@@H](C)O)C(=O)N1)[C@@H](C)O [Compound 2, [19CD]-isoGlu-RC()NTATC()ATQRLAEFLHHSSNNF-Gly(Me)-Ile(Me)-LSSTNVGSNTP-NH2] ({C20 diacid-γGlu}-RCNTATCATQRLAEFLHHSSNNF[Sar][NMeI]LSSTNVGSNTP-NH2; disulfide 2-7) | 0.16 nM | 0.26 nM | SS (SS indicates solubility ≥ 1mg/ml) | SS (SS indicates solubility ≥ 1mg/ml) | SS (SS indicates solubility ≥ 1mg/ml) | SS (SS indicates solubility ≥ 1mg/ml) | SS (SS indicates solubility ≥ 1mg/ml) | SS (SS indicates solubility ≥ 1mg/ml) | II (II indicates solubility ≤ 1 mg/ml) | FND^&& | FND^&& | –
